# In ChEMBL document CHEMBL2375301, “Design and synthesis of novel 4-benzothiazole amino quinazolines Dasatinib derivatives as potential anti-tumor agents” (Eur J Med Chem, 2013):
# pIC50: −log10 of the molar value.
# Columns and labels:
# [1] = target: Epidermal growth factor receptor (Homo sapiens) (UniProt P00533); details: at 10 µM
# Description: Inhibition of EGFR (unknown origin) at 10 uM relative to control
# [2] = target: Tyrosine-protein kinase ABL1 (Homo sapiens) (UniProt P00519); details: at 10 µM
# Description: Inhibition of human recombinant ABL at 10 uM relative to control
# K562 = assay: Cytotoxicity against human K562 cells after 72 hrs by WST-8 assay; format: functional, cell-based; details: K562, 72 h
# U-937 = assay: Cytotoxicity against human U937 cells after 72 hrs by WST-8 assay; format: functional, cell-based; details: U-937, 72 h
# [3] = target: Proto-oncogene tyrosine-protein kinase Src (Homo sapiens) (UniProt P12931); details: at 10 µM
# Description: Inhibition of human recombinant SRC at 10 uM relative to control
# A549 = assay: Cytotoxicity against human A549 cells after 72 hrs by WST-8 assay; format: functional, cell-based; details: A549, 72 h
# HCT-116 = assay: Cytotoxicity against human HCT116 cells after 72 hrs by WST-8 assay; format: functional, cell-based; details: HCT-116, 72 h
# NCI-H661 = assay: Cytotoxicity against human NCI-H661 cells after 72 hrs by WST-8 assay; format: functional, cell-based; details: NCI-H661, 72 h
# DLD-1 = assay: Cytotoxicity against human DLD1 cells after 72 hrs by WST-8 assay; format: functional, cell-based; details: DLD-1, 72 h
# Chain of Epidermal growth factor receptor (Homo sapiens) (P00533 whole entry): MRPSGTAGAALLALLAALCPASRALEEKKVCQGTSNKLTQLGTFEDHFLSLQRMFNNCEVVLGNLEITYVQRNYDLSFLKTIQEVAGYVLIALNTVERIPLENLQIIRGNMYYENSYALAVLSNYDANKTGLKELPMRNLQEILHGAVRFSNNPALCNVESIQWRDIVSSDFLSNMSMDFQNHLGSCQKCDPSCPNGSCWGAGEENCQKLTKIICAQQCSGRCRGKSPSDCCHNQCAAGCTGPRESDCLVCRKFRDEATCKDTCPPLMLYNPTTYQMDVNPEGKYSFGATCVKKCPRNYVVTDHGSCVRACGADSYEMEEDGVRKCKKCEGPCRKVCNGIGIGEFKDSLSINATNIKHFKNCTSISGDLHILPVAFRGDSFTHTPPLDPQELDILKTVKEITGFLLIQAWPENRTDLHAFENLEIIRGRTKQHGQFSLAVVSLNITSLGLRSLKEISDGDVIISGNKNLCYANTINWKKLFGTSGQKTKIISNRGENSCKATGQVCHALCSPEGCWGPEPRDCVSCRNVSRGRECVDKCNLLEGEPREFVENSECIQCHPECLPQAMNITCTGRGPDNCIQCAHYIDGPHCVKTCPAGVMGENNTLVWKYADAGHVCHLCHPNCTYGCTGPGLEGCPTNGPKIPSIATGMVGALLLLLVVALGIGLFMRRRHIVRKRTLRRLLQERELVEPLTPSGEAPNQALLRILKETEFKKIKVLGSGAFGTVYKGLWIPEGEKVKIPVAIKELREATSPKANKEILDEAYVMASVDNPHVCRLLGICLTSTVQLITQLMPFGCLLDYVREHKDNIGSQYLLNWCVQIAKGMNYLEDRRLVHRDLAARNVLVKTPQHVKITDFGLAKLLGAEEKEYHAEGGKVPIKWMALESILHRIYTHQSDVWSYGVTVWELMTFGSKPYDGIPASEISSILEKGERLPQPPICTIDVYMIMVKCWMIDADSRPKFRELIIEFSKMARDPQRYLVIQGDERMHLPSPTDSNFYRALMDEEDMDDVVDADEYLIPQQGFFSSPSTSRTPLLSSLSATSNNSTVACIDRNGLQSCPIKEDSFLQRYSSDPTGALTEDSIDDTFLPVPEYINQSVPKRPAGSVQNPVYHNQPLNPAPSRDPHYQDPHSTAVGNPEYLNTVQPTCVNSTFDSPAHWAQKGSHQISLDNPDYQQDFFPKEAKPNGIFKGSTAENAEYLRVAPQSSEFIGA
# Chain of Tyrosine-protein kinase ABL1 (Homo sapiens) (P00519 whole entry): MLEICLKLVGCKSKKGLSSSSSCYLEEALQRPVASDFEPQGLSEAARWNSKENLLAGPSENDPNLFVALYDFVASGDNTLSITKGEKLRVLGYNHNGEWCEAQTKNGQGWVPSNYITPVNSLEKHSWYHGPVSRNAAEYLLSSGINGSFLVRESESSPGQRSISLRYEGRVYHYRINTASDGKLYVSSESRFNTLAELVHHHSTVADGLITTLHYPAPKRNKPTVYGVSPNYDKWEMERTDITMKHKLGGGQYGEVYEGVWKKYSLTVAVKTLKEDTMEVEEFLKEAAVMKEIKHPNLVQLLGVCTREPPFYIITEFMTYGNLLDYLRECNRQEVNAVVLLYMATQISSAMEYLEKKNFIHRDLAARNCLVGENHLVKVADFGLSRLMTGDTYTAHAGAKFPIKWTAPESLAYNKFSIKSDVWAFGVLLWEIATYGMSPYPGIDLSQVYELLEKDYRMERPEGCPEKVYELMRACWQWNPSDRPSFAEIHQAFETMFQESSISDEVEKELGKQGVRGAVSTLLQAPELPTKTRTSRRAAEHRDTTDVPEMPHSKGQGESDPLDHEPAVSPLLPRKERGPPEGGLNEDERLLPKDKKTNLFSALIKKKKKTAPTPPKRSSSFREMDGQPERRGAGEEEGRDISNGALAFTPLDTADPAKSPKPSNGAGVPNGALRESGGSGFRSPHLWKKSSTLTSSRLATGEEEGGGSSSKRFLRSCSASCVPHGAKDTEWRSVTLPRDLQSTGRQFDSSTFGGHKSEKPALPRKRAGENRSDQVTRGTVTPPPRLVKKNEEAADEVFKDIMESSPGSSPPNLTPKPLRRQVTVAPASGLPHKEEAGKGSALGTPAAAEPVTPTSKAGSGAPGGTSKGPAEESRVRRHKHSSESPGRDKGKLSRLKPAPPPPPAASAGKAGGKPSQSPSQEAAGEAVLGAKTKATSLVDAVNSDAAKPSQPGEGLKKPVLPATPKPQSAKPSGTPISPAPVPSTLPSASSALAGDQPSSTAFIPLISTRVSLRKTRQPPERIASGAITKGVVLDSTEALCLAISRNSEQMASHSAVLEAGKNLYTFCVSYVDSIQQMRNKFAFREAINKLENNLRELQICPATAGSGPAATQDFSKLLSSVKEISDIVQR
# Chain of Proto-oncogene tyrosine-protein kinase Src (Homo sapiens) (P12931 2-536 limits assumed): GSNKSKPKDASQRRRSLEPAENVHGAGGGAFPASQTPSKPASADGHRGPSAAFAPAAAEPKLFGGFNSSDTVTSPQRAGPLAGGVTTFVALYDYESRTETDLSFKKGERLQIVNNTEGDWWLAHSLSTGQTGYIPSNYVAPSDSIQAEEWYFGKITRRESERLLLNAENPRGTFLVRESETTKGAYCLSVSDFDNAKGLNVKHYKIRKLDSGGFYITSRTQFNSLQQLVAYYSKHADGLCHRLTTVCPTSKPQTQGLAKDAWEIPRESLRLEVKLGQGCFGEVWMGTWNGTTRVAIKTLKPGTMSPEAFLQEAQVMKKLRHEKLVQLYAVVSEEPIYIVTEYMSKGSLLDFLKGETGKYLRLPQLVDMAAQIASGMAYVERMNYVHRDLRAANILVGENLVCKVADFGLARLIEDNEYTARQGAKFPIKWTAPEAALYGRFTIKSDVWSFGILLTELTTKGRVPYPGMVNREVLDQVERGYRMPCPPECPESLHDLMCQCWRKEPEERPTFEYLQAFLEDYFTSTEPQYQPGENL
inhibition [1],inhibition [2],inhibition [3],Compound,pIC50 (K562),pIC50 (U-937),pIC50 (A549),pIC50 (HCT-116),pIC50 (NCI-H661),pIC50 (DLD-1)
10.5%,50%,53.6%,CCN(CC)CCCOc1cc2ncnc(Nc3nc4ccc(C(=O)Nc5c(C)cccc5C)cc4s3)c2cc1OC,4.55,4.63,< 4.00,< 4.00,4.18,< 4.00
25.4%,76.3%,65.3%,CCN(CC)CCCOc1cc2ncnc(Nc3nc4ccc(C(=O)Nc5c(C)cc(C)cc5C)cc4s3)c2cc1OC,5.17,5.37,5.24,5.12,5.14,5.17
25.4%,49.2%,49%,COc1cc2c(Nc3nc4ccc(C(=O)Nc5c(C)cccc5C)cc4s3)ncnc2cc1OCCCN1CCCCC1C (configuration not stated),4.91,4.97,4.12,< 4.00,4.07,< 4.00
21.2%,34.3%,39.9%,COc1cc2c(Nc3nc4ccc(C(=O)Nc5c(C)cccc5C)cc4s3)ncnc2cc1OCCCN1CCCC1,4.80,4.72,4.08,< 4.00,< 4.00,< 4.00
13.3%,54.2%,56.5%,COc1cc2c(Nc3nc4ccc(C(=O)Nc5c(C)cccc5C)cc4s3)ncnc2cc1OCCCN1CCC(C)CC1,4.80,4.95,4.05,< 4.00,4.14,< 4.00
48.7%,82.3%,91.8%,COc1cc2c(Nc3nc4ccc(C(=O)Nc5c(C)cc(C)cc5C)cc4s3)ncnc2cc1OCCCN1CCCC1,5.37,5.34,5.05,5.24,5.02,5.23
28.7%,49.9%,83.3%,COc1cc2c(Nc3nc4ccc(C(=O)Nc5c(C)cccc5Cl)cc4s3)ncnc2cc1OCCCN1CCCCC1,4.90,5.07,4.89,4.63,4.86,4.83
10.4%,43.7%,34.3%,COc1cc2c(Nc3nc4ccc(C(=O)Nc5c(C)cccc5Cl)cc4s3)ncnc2cc1OCCCN1CCOCC1,4.79,4.65,4.12,< 4.00,< 4.00,< 4.00
65.8%,,89.2%,COc1cc2c(Nc3nc4ccc(C(=O)Nc5c(C)cc(C)cc5C)cc4s3)ncnc2cc1OCCCN1CCCCC1C (configuration not stated),5.46,5.44,5.24,5.25,5.06,5.24
15.6%,78.7%,55.7%,COc1cc2c(Nc3nc4ccc(C(=O)Nc5c(C)cccc5Cl)cc4s3)ncnc2cc1OCCCN1CCCC1,4.88,4.70,4.41,4.20,4.34,4.22
46.8%,67.1%,68.2%,CCN(CC)CCCOc1cc2ncnc(Nc3nc4ccc(C(=O)Nc5c(C)cccc5Cl)cc4s3)c2cc1OC,5.02,5.14,4.97,4.88,4.95,4.93
37.9%,81.6%,69.7%,COc1cc2c(Nc3nc4ccc(C(=O)Nc5c(C)cc(C)cc5C)cc4s3)ncnc2cc1OCCCN1CCCCC1,5.03,4.91,4.99,4.77,5.00,4.61
9.9%,41.7%,28.7%,COc1cc2c(Nc3nc4ccc(C(=O)Nc5c(C)cccc5C)cc4s3)ncnc2cc1OCCCN1CCOCC1,< 4.00,4.72,< 4.00,< 4.00,< 4.00,< 4.00
23.7%,56.2%,67.4%,COc1cc2c(Nc3nc4ccc(C(=O)Nc5c(C)cccc5Cl)cc4s3)ncnc2cc1OCCCN1CCC(C)CC1,5.08,5.04,5.01,5.04,5.10,4.95
53.6%,71.1%,78.9%,COc1cc2c(Nc3nc4ccc(C(=O)Nc5c(C)cccc5Cl)cc4s3)ncnc2cc1OCCCN1CCCCC1C (configuration not stated),5.17,5.15,5.17,5.14,5.28,5.17
,,,Cc1nc(Nc2ncc(C(=O)Nc3c(C)cccc3Cl)s2)cc(N2CCN(CCO)CC2)n1 [DASATINIB],4.92,4.91,5.09,5.28,5.11,5.34
45.1%,76.5%,80.6%,COc1cc2c(Nc3nc4ccc(C(=O)Nc5c(C)cc(C)cc5C)cc4s3)ncnc2cc1OCCCN1CCOCC1,4.70,4.62,4.79,5.25,4.74,5.24
17.3%,39%,43.4%,COc1cc2c(Nc3nc4ccc(C(=O)Nc5c(C)cccc5C)cc4s3)ncnc2cc1OCCCN1CCCCC1,4.86,4.83,< 4.00,< 4.00,< 4.00,< 4.00
36.3%,68.2%,78.6%,COc1cc2c(Nc3nc4ccc(C(=O)Nc5c(C)cc(C)cc5C)cc4s3)ncnc2cc1OCCCN1CCC(C)CC1,5.23,5.25,5.27,5.16,5.11,5.15
